Laboratory results taken from US20030134869A1, “Novel therapeutic use of nicergoline” (priority 1998, published 2003).

Experiments:
[1] = system: motor neurons in astrocyte/motor neuron co-cultures; assay: Survival of motor neurons in astrocyte/motor neuron co-cultures; assay type: cell-based, rats; conditions: for % OF LABELED MOTOR NEURONS: vehicle alone = 100 ± 9.4
Protocol: (§1) The motor neuron-enriched cultures are prepared using the centrifugation method which was described by R. L. SCHNAAR and A. E. SCHAFFNER, J. Neurosci., 1, 204-217 (1981) and modified by W. CAMU and C. E. HENDERSON, J. Neurosci. Methods, 44, 59-70 (1992). The motor neurons are spread, at a density of 2500 cells per plate, on 35 mm culture plates which have previously been coated with laminin/ornithine in accordance with the method of A. G. ESTEVEZ et al., J. Neurosci., 18 (3), 923-931 (1998). The cultures are then maintained in L15 medium (GIBCO BRL) containing sodium bicarbonate (22 mM), conalbumin (0.1 mg/ml), putrescine (0.1 mM), insulin (5 μg/ml), sodium selenite ([…]), glucose (20 mM), progesterone (21 nM), penicillin (100 IU/ml) and streptomycin (100 μg/ml).
The astrocytes are obtained from young, one-day-old rats using the slightly modified method of R. P. SANETO and J. DE VELLIS as described in Neurochemistry a practical approach (A. J. TURNER and H. S. St JOHN) IRL Press, Oxford-Washington D.C., pp. 27-63. The spinal cords are dissected out under sterile conditions and freed of meninges and dorsal ganglia. Five to ten spinal cords are transferred into PBS (phosphate buffer saline) and cut before being incubated at 37° C. for 25 minutes in PBS to which 0.25% trypsin has been added. The enzymatic treatment is stopped by adding 10 ml of Dulbecco's modified Eagle medium (DMEM), to which 10% fetal calf serum (FCS) has been added, and the cells are collected by centrifugation. Another step of mechanical dissociation is performed using the end of a 1 ml pipette. The cells are spread, at a density of 1.5-2×10^6 cells per 25 cm^2 of culture medium, in DMEM containing 10% FCS. After 2 days in vitro, the cultures are fed every day. When a visible monolayer of cells has been completed, the cultures are stirred at 250 rpm for 48 hours and, on the following day, the monolayers are treated with cytosine arabinoside (10^−5 M) for 48 hours. The astrocyte monolayers are then amplified to a density of five on 35 mm culture plates for initially 25 cm^2 culture flasks.
The spinal astrocyte cultures consist, to an extent of more than 98%, of flat, polygonal cells which are immunoreactive for the glial fibrillar acid protein (GFAP). The monolayers are exposed to the product to be tested and then incubated with the motor neuron medium in order to obtain a conditioned culture medium. This medium is transferred and tested at different dilutions in order to determine its effects on neuronal survival.
The cells are fixed in 4% paraformaldehyde and 0.1% glutaraldehyde in PBS (pH 7.4 and at 4° C. for 15 minutes) and in a cold methanolic solution. […]

[2] = system: motor neurons in motor neuron-enriched cultures; assay: Neuronal death in motor neuron-enriched cultures in the absence of trophic factor; assay type: cell-based; conditions: p<0.05
Protocol: The effect of nicergoline has therefore been determined in a degeneration model which is induced by depriving cultured motor neurons of neurotrophic factor.
as §1
More than 70% of the cells are immunoreactive for the neurotrophin p75 receptor and the Islet ½ markers for spinal motor neurons. […]
The number of motor neurons is estimated by counting the labeled cells in an area of 0.4-1 cm^2 under a microscope which enlarges 200 times. In all cases, the values are expressed as a percentage of the number of motor neurons which are present in cultures maintained using trophic factors. […]

Q: How did the “% OF LABELED MOTOR NEURONS” value ([1]; nicergoline 0.1 μM) turn out when `CO[C@]12C[C@@H](COC(=O)c3cncc(Br)c3)CN(C)[C@@H]1Cc1cn(C)c3cccc2c13` [Nicergoline, (8β)-10-methoxy-1,6-dimethylergoline-8-methanol-5-bromonicotinate] was run?
A: 115.7 ± 16%

Q: What about the “% OF LABELED MOTOR NEURONS” value ([1]; nicergoline 1 μM, p < 0.05 vs vehicle) of the same compound?
A: 145.5 ± 24 %

Q: What about the “increase of the survival of motor neurons as compared with cocultures treated with the vehicle alone” value ([1]; nicergoline 10 μM) of the same compound?
A: 63.7%

Q: And the “% OF LABELED MOTOR NEURONS” value ([1]; nicergoline 10 μM, p < 0.01 vs vehicle)?
A: 163.7 ± 22.5 %

Q: And the “increase of the survival of the motor neurons” value [2]?
A: 13%
